# Results taken from PubChem BioAssay AID2060616 (Molecular Pharmacology Branch, DTP, NCI, 2025).
# Test system: 377384-186-R-J1-PDC complex spheroid viability
# Test: Anticancer human tumor 377384-186-R-J1-PDC patient-derived pancreatic carcinoma cell line growth inhibition [CLK]
# Conditions: for IC50: curve of first compound; for viability, T/C: stronger effect = lower value
# From the text: A high-throughput screen of multi-cell type tumor spheroids was designed to identify active combinations of […] and targeted small molecules. Complex spheroids include a stromal component modeled by human endothelial cells (HUVEC) and fibroblasts modeled by human mesenchymal stem cells (MSCs). The concentration ranges selected for each drug and investigational agent were based upon clinically achievable concentrations if the clinical Cmax of the agent was known.
# Compounds. The drugs and investigational agents: cirtuvivint (SM08502; NSC835563), CC-671 (NSC850746), vemurafenib (NSC761431), tapotoclax (NSC804041), sotorasib (NSC818433), adagrasib (NSC831453), MRTX-1133 (NSC836407), BAY2416964 (NSC825713), copanlisib (NSC816437), inavolisib (NSC800729), abemaciclib (NSC768073), osimertinib (NSC779217), entinostat (NSC756642), eltanexor (KPT-8602, NSC794443), venetoclax (NSC766270), ceralasertib (NSC777638), bortezomib (NSC756655), olaparib (NSC753686), talazoparib (NSC767125), alisertib (NSC759677), peposertib (NSC802822), gemcitabine (NSC613327), 5-fluorouracil (NSC19893), SN-38 (NSC673596), oxaliplatin (NSC266046), paclitaxel (NSC125973), and doxorubicin (NSC123127), were obtained from the National Cancer Institute (NCI) Developmental Therapeutics Program Chemical Repository. The FDA-approved anticancer drug set is available from the Developmental Therapeutics Program at https://dtp.cancer.gov/organization/dscb/obtaining/available plates.htm. […] The stock solutions were prepared in dimethyl sulfoxide (DMSO, Sigma-Aldrich, St. Louis, MO, cat. D2650), except for the platinum complexes which were prepared in saline (Quality Biological, Gaithersburg, MD, cat. 114-055-101), at 800-fold the tested concentration and stored at -70 degrees C prior to their use. All drugs and investigational agents were tested over a range starting from a high concentration at or near the clinical Cmax and decreasing in half-log increments. If the clinical Cmax for an agent had not been determined, the highest concentration tested was 10 microM.
# Cell Culture. All cells were maintained in an incubator at 37 degrees C and 5% CO2 with 95% humidity. The PDC lines were cultured according to standard operating procedures established by the NCI PDMR. Briefly, all PDCs were thawed and cultured in Matrigel-coated flasks prepared with a working solution of 1X Ham's F-12 nutrient mix, without supplementation (Invitrogen, Waltham, MA, cat. 11765054), 100 U/mL penicillin-streptomycin (Invitrogen, cat. 15140122), and 2.5% Matrigel (Corning Inc., Corning, NY, cat. 354248) for the first three passages. The 947758-054-R-J2-PDC line was cultured in 6B/Colon 1A media, which includes advanced DMEM/F-12 (Thermo Fisher Scientific, cat. 12634028), 10 mM HEPES (Thermo Fisher Scientific, cat. 15630080), 1X GlutaMAX supplement (Thermo Fisher Scientific, cat. 35050061), 0.1 mg/mL primocin (InvivoGen, cat. ant-pm-2), 10% defined fetal bovine serum, heat inactivated (HyClone Laboratories Inc., cat. SH30070.03HI), 1.25 mM N-Acetyl-L-cysteine (Sigma-Aldrich, cat. A9165), 10 mM nicotinamide (Sigma-Aldrich, cat. N0636), 1X B-27 supplement (Thermo Fisher Scientific, cat. 17504044), 1X N-2 supplement (Thermo Fisher Scientific, cat. 17502048), and 10 microM Y-27632 dihydrochloride (Tocris Bioscience, cat. 1254). The 876862-298-R-J1-PDC was cultured in 6E media, which includes all 6B/Colon 1A media components plus 50% L-WRN conditioned media (ATCC, cat. CRL-3276), 50 ng/mL recombinant human EGF recombinant protein (hEGF; Thermo Fisher Scientific, cat. PHG0311), 10 ng/mL recombinant human fibroblast growth factor 10 (hGFG-10; PeproTech, cat. 100-26), 1 ng/mL recombinant human fibroblast growth factor 2 (hFGF-2; PeproTech, cat. 100-18B), and 1 µM prostaglandin E2 (PGE2; Tocris, cat. 2296). The 227483-062-R1-J1-PDC line was cultured in Panc media, containing all 6E components except hFGF-2, with the addition of 500 nM SB-431542 (Selleckchem, cat. S1067) and 10 nM gastrin (Tocris, cat. 3006). […]
# [1] = second compound 0.0316 µM, first compound 0.0316 µM
# [2] = second compound 0.0316 µM, first compound 0.1 µM
# [3] = second compound 0.0316 µM, first compound 0.316 µM
# [4] = second compound 0.0316 µM, first compound 1 µM
# [5] = second compound 0.0316 µM, first compound 3.16 µM
# [6] = second compound 0.0316 µM, first compound 10 µM
# [7] = second compound 0.1 µM, first compound 0.0316 µM
# [8] = second compound 0.1 µM, first compound 0.1 µM
# [9] = second compound 0.1 µM, first compound 0.316 µM
# [10] = second compound 0.1 µM, first compound 1 µM
# [11] = second compound 0.1 µM, first compound 3.16 µM
# [12] = second compound 0.1 µM, first compound 10 µM
# [13] = second compound 0.316 µM, first compound 0.0316 µM
# [14] = second compound 0.316 µM, first compound 0.1 µM
# [15] = second compound 0.316 µM, first compound 0.316 µM
# [16] = second compound 0.316 µM, first compound 1 µM
# [17] = second compound 0.316 µM, first compound 3.16 µM
# [18] = second compound 0.316 µM, first compound 10 µM
# [19] = second compound 1 µM, first compound 0.0316 µM
# [20] = second compound 1 µM, first compound 0.1 µM
# [21] = second compound 1 µM, first compound 0.316 µM
# [22] = second compound 1 µM, first compound 1 µM
# [23] = second compound 1 µM, first compound 3.16 µM
# [24] = second compound 1 µM, first compound 10 µM
# [25] = second compound 3.16 µM, first compound 0.0316 µM
# [26] = second compound 3.16 µM, first compound 0.1 µM
# [27] = second compound 3.16 µM, first compound 0.316 µM
# [28] = second compound 3.16 µM, first compound 1 µM
# [29] = second compound 3.16 µM, first compound 3.16 µM
# [30] = second compound 3.16 µM, first compound 10 µM
# [31] = second compound 10 µM, first compound 0.0316 µM
# [32] = second compound 10 µM, first compound 0.1 µM
# [33] = second compound 10 µM, first compound 0.316 µM
# [34] = second compound 10 µM, first compound 1 µM
# [35] = second compound 10 µM, first compound 3.16 µM
# [36] = second compound 10 µM, first compound 10 µM
# 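Further: spheroids exposed to agents for 7 days before reading.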
# 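Wherever viability, T/C is given: luminescence signal used as a stand-in for viable cells.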
structure (smiles),measurement,setting,value
C=C(F)C(=O)N1CCN(c2nc(OCC3CCCN3C)nc3c2CCN(c2cccc4cccc(Cl)c24)C3)CC1CC#N (centres undefined) + CN1CCN(c2cc(C(=O)Nc3cc4cc(-c5cnn(C)c5)ccc4cn3)ccn2)CC1,IC50,second compound 0.0316 µM,1.89 µM
same,IC50,second compound 0.1 µM,1.63 µM
same,IC50,second compound 0.316 µM,< 0.0316 µM
same,IC50,second compound 1 µM,< 0.0316 µM
same,IC50,second compound 3.16 µM,< 0.0316 µM
same,IC50,second compound 10 µM,< 0.0316 µM
same,"viability, T/C",[1],96.6%
same,"viability, T/C",[2],97.2%
same,"viability, T/C",[3],91.7%
same,"viability, T/C",[4],83.5%
same,"viability, T/C",[5],23.2%
same,"viability, T/C",[6],0.18%
same,"viability, T/C",[7],94.1%
same,"viability, T/C",[8],101%
same,"viability, T/C",[9],81.4%
same,"viability, T/C",[10],72.5%
same,"viability, T/C",[11],22.4%
same,"viability, T/C",[12],0.15%
same,"viability, T/C",[13],30.5%
same,"viability, T/C",[14],32.5%
same,"viability, T/C",[15],30.3%
same,"viability, T/C",[16],23.9%
same,"viability, T/C",[17],17.9%
same,"viability, T/C",[18],0.31%
same,"viability, T/C",[19],1.57%
same,"viability, T/C",[20],1.56%
same,"viability, T/C",[21],2.02%
same,"viability, T/C",[22],1.49%
same,"viability, T/C",[23],1.66%
same,"viability, T/C",[24],0.44%
same,"viability, T/C",[25],0.52%
same,"viability, T/C",[26],0.83%
same,"viability, T/C",[27],0.4%
same,"viability, T/C",[28],0.56%
same,"viability, T/C",[29],0.32%
same,"viability, T/C",[30],0.34%
same,"viability, T/C",[31],0.6%
same,"viability, T/C",[32],0.4%
same,"viability, T/C",[33],0.42%
same,"viability, T/C",[34],0.45%
same,"viability, T/C",[35],0.17%
same,"viability, T/C",[36],0.19%
C=CC(=O)N1CCN(c2nc(=O)n(-c3c(C)ccnc3C(C)C)c3nc(-c4c(O)cccc4F)c(F)cc23)C(C)C1 (centres undefined) + CN1CCN(c2cc(C(=O)Nc3cc4cc(-c5cnn(C)c5)ccc4cn3)ccn2)CC1,IC50,second compound 0.0316 µM,> 10 µM
same,IC50,second compound 0.1 µM,> 10 µM
same,IC50,second compound 0.316 µM,< 0.0316 µM
same,IC50,second compound 1 µM,< 0.0316 µM
same,IC50,second compound 3.16 µM,< 0.0316 µM
same,IC50,second compound 10 µM,< 0.0316 µM
same,"viability, T/C",[1],95.5%
same,"viability, T/C",[2],101%
same,"viability, T/C",[3],114%
same,"viability, T/C",[4],131%
same,"viability, T/C",[5],117%
same,"viability, T/C",[6],101%
same,"viability, T/C",[7],104%
same,"viability, T/C",[8],92.8%
same,"viability, T/C",[9],110%
same,"viability, T/C",[10],112%
same,"viability, T/C",[11],116%
same,"viability, T/C",[12],88.3%
same,"viability, T/C",[13],27.9%
same,"viability, T/C",[14],35.2%
same,"viability, T/C",[15],38.1%
same,"viability, T/C",[16],41.4%
same,"viability, T/C",[17],37.6%
same,"viability, T/C",[18],24.7%
same,"viability, T/C",[19],1.29%
same,"viability, T/C",[20],1.17%
same,"viability, T/C",[21],1.31%
same,"viability, T/C",[22],1.24%
same,"viability, T/C",[23],2.37%
same,"viability, T/C",[24],2.29%
same,"viability, T/C",[25],0.53%
same,"viability, T/C",[26],0.78%
same,"viability, T/C",[27],0.7%
same,"viability, T/C",[28],0.78%
same,"viability, T/C",[29],1.84%
same,"viability, T/C",[30],3.69%
same,"viability, T/C",[31],0.44%
same,"viability, T/C",[32],0.59%
same,"viability, T/C",[33],1.65%
same,"viability, T/C",[34],0.86%
same,"viability, T/C",[35],1.07%
same,"viability, T/C",[36],0.98%
